≈ marks a conversion by molar mass, not a printed value. Calls of active or inactive are those of the source. The rule behind the calls is not given here.
How the values were obtained:
[1] = Toxicity in Sprague-Dawley rat assessed as damage in heart at 20 mg/kg, po for 5 days; format: organism-based; settings: in vivo, 120 h, time 5 day
[2] = test system: HepG2; assay: Lipid lowering activity in human HepG2 cells assessed as inhibition of FFA-induced triglyceride content at 20 uM preincubated for 1 hr followed by FFA treatment for 24 hrs relative to control; format: functional
[3] = test system: HepG2; assay: Induction of glucose uptake in human HepG2 cells assessed as increase in GlcN-reduced GLUT4 level at 2.5 to 20 uM preincubated for 1 hr followed by GlcN addition measured after 24 hrs by Western blot analysis; format: functional, cell-based; settings: dose 2.5-20 µM, time 25.0 hrs
[4] = test system: HepG2; assay: Inhibition of insulin resistance in human HepG2 cells assessed as decrease in GlcN-induced glucose production at 40 uM preincubated for 1 hr followed by GlcN treatment for 18 hrs and subsequent insulin stimulation for 20 mins in presence of VPA by glucose oxidase-peroxidase assay; format: functional, cell-based; settings: time 19.33 hrs
[5] = test system: Mus musculus; assay: Hypoglycemic activity in HFD-fed STZ-induced diabetic C57BL/6J mouse model assessed as reduction in glucose production at 10 to 20 mg/kg, po administered everyday for 3 weeks; format: functional, organism-based; settings: dose 10-20 mg/kg
[6] = test system: Mus musculus; assay: Hypoglycemic activity in 12 hr-fasted STZ-induced diabetic C57BL/6J mouse model assessed as decrease in blood glucose level at 20 mg/kg, po measured for 30 to 90 mins by insulin tolerance test; format: functional, organism-based; settings: time 30-90 min
[7] = test system: Mus musculus; assay: Hypoglycemic activity in HFD-fed STZ-induced diabetic C57BL/6J mouse model assessed as improvement in total cholesterol level in liver at 10 to 20 mg/kg, po administered everyday for 3 weeks; format: functional, organism-based; settings: dose 10-20 mg/kg
[8] = test system: Mus musculus; assay: Hypoglycemic activity in HFD-fed STZ-induced diabetic C57BL/6J mouse model assessed as improvement in weight loss at 10 to 20 mg/kg, po administered everyday for 3 weeks; format: functional, organism-based; settings: dose 10-20 mg/kg
[9] = Toxicity in Sprague-Dawley rat assessed as damage in liver at 20 mg/kg, po for 5 days; format: organism-based; settings: in vivo, 120 h, time 5 day
[10] = biological target: T1, Methylcrotonoyl-CoA carboxylase subunit alpha, mitochondrial (Homo sapiens) (UniProt Q96RQ3); assay: Binding affinity to MCCC1 in human HepG2 cells assessed as reduction in pronase-mediated MCCC1 degradation at 40 to 80 uM preincubated for 1 hr followed by pronase addition measured after 10 mins by DARTS assay; format: cell-based; settings: dose 40-80 µM, time 70.0 min
T1 sequence (whole entry): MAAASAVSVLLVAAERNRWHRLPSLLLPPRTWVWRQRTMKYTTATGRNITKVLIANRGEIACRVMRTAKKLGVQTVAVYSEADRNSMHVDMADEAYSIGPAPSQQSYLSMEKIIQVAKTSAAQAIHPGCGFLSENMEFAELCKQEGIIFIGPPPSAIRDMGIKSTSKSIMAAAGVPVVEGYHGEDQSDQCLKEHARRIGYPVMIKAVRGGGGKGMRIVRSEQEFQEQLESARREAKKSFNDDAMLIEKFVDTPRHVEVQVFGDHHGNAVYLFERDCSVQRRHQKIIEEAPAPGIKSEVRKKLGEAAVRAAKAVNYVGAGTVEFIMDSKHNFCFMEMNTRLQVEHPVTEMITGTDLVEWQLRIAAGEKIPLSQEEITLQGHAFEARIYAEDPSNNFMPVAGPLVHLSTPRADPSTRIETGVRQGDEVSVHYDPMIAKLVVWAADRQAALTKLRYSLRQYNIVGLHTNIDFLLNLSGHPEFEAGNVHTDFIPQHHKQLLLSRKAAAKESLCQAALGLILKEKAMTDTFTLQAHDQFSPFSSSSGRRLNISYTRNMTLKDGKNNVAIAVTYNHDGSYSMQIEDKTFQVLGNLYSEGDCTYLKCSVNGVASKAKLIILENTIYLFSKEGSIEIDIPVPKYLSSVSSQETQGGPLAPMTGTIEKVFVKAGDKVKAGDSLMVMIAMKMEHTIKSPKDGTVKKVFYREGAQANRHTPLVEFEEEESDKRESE

[11] = test system: Mus musculus; assay: Hypoglycemic activity in HFD-fed STZ-induced diabetic C57BL/6J mouse model assessed as decrease in blood glucose level at 10 to 20 mg/kg, po administered everyday for 3 weeks; format: functional, organism-based; settings: dose 10-20 mg/kg
[12] = test system: HepG2; assay: Lipid lowering activity in human HepG2 cells assessed as reduction in FFA-induced triglyceride content at 20 uM preincubated for 1 hr followed by FFA treatment for 24 hrs; format: functional, cell-based; settings: time 25.0 hrs
[13] = Solubility of compound in PBS; format: physicochemical
[14] = test system: HEK293; assay: Cytotoxicity against HEK293 cells assessed as cell viability at 40 to 320 uM incubated for 24 hrs by CCK8 assay relative to control; format: toxicity, cell-based; settings: human, hek293, 24 h, dose 40-320 µM
[15] = test system: Mus musculus; assay: Hypoglycemic activity in HFD-fed STZ-induced diabetic C57BL/6J mouse model assessed as increase in GLUT4 level in liver at 10 to 20 mg/kg, po administered everyday for 3 weeks by Western blot analysis; format: functional, organism-based; settings: dose 10-20 mg/kg
[16] = test system: HepG2; assay: Inhibition of insulin resistance-associated inflammation in human HepG2 cells assessed as increase in GlcN-reduced I-kaapaB-alpha level at 2.5 to 20 uM preincubated for 1 hr followed by GlcN addition measured after 24 hrs by Western blot analysis; format: functional, cell-based; settings: dose 2.5-20 µM
[17] = test system: HepG2; assay: Inhibition of insulin resistance in human HepG2 cells assessed as restoration of GlcN-reduced MCCC1 level at 40 uM preincubated for 1 hr followed by GlcN treatment for 18 hrs by Western blot analysis; format: functional, cell-based; settings: time 19.0 hrs
[18] = test system: Mus musculus; assay: Hypoglycemic activity in HFD-fed STZ-induced diabetic C57BL/6J mouse model assessed as improvement in triglyceride level in liver at 10 to 20 mg/kg, po administered everyday for 3 weeks; format: functional, organism-based; settings: dose 10-20 mg/kg
[19] = test system: Mus musculus; assay: Hypoglycemic activity in HFD-fed STZ-induced diabetic C57BL/6J mouse model assessed as increase in AKT phosphorylation in liver at 10 to 20 mg/kg, po administered everyday for 3 weeks by Western blot analysis; format: functional, organism-based; settings: dose 10-20 mg/kg
[20] = test system: HepG2; assay: Inhibition of insulin resistance in human HepG2 cells assessed as restoration of GlcN-reduced MCCC1 level at 40 uM preincubated for 1 hr followed by GlcN treatment for 18 hrs in presence of VPA by Western blot analysis; format: functional, cell-based; settings: time 19.0 hrs
[21] = test system: Mus musculus; assay: Hypoglycemic activity in HFD-fed STZ-induced diabetic C57BL/6J mouse model assessed as increase in hepatic glycogen synthesis at 10 to 20 mg/kg, po administered everyday for 3 weeks; format: functional, organism-based; settings: dose 10-20 mg/kg
[22] = test system: HepG2; assay: Induction of glucose uptake in human HepG2 cells assessed as increase in GlcN-reduced GSK-3beta phosphorylation at 2.5 to 20 uM preincubated for 1 hr followed by GlcN addition measured after 24 hrs by Western blot analysis; format: functional, cell-based; settings: dose 2.5-20 µM, time 25.0 hrs
[23] = Toxicity in Sprague-Dawley rat assessed as damage in colon at 20 mg/kg, po for 5 days; format: organism-based; settings: in vivo, 120 h, time 5 day
[24] = Cytotoxicity against human HepG2 cells assessed as cell viability at 80 uM incubated for 24 hrs by CCK8 assay relative to control; format: toxicity, cell-based; settings: HepG2 cells, read-out: Activity
[25] = test system: HepG2; assay: Induction of glucose uptake in human HepG2 cells assessed as increase in GlcN-reduced AKT phosphorylation at 2.5 to 20 uM preincubated for 1 hr followed by GlcN addition measured after 24 hrs by Western blot analysis; format: functional, cell-based; settings: dose 2.5-20 µM, time 25.0 hrs
[26] = test system: Mus musculus; assay: Hypoglycemic activity in HFD-fed STZ-induced diabetic C57BL/6J mouse model assessed as reversal of diabetes-reduced MCCC1 level in liver at 10 to 20 mg/kg, po administered everyday for 3 weeks by Western blot analysis; format: functional, organism-based; settings: dose 10-20 mg/kg
[27] = Toxicity in Sprague-Dawley rat assessed as inflammatory cell infiltration in colon tissue at 20 mg/kg, po for 5 days; format: organism-based; settings: in vivo, 120 h, time 5 day
[28] = biological target: T1, Methylcrotonoyl-CoA carboxylase subunit alpha, mitochondrial (Homo sapiens); assay: Binding affinity to MCCC1 in human HepG2 cells assessed as thermal stability at 40 uM incubated for 1 hr followed by heat exposure for 3 mins by CETSA; format: cell-based
[29] = Toxicity in Sprague-Dawley rat assessed as reduction in number of crypts in colon tissue at 20 mg/kg, po for 5 days; format: organism-based; settings: in vivo, 120 h, time 5 day
[30] = test system: Mus musculus; assay: Hypoglycemic activity in 12 hr-fasted STZ-induced diabetic C57BL/6J mouse model assessed as decrease in AUC of blood glucose level at 20 mg/kg, po measured upto 120 mins by insulin tolerance test relative to control; format: functional; design: scale not given: the % may be the effect or the level left; settings: 2 h
[31] = Toxicity in Sprague-Dawley rat assessed as damage in spleen at 20 mg/kg, po for 5 days; format: organism-based; settings: in vivo, 120 h, time 5 day
[32] = test system: HepG2; assay: Inhibition of insulin resistance in human HepG2 cells assessed as decrease in GlcN-induced glucose production at 20 uM preincubated for 1 hr followed by GlcN treatment for 18 hrs and subsequent insulin stimulation for 20 mins; format: functional, cell-based; settings: time 19.33 hrs
[33] = test system: HepG2; assay: Induction of glucose uptake in human HepG2 cells assessed as increase in GlcN-reduced AKT phosphorylation at 40 uM preincubated for 1 hr followed by GlcN addition measured after 18 hrs in presence of VPA by Western blot analysis; format: functional, cell-based; settings: time 19.0 hrs
[34] = Toxicity in Sprague-Dawley rat assessed as damage in lungs at 20 mg/kg, po for 5 days; format: organism-based; settings: in vivo, 120 h, time 5 day

For `C[C@H]1[C@H](C)CC[C@]2(C(=O)NCC(=O)O)CC[C@]3(C)C(=CC[C@@H]4[C@@]5(C)C[C@@H](O)[C@H](O)C(C)(C)[C@@H]5CC[C@]43C)[C@H]12`, the Activity [1] was “Non-toxic”, the inhibition at 20 µM [2] was 59.5% and the Activity [3] was “Active”. The inhibition [4] was “inactive”, the Activity [5] was “Active” and the Activity [6] was “Active”. The Activity [7] was “Active”, the Activity [8] was “Active” and the Activity [9] was “Non-toxic”. For the same compound, the Activity [10] was “Active”, the Activity [11] was “Active; Activity Similar To Metformin At 200 Mg/Kg” and the Activity [12] was “Active”. The solubility [13] was 3.98 mM (≈ 2110 µg/mL), the Activity [14] was “Non-toxic” and the Activity [15] was “Active”. For the same compound, the inhibition [16] was “Active”, the inhibition [17] was “Active” and the Activity [18] was “Active”. For the same compound, the Activity [19] was “Active”, the inhibition [20] was “inactive” and the Activity [21] was “Active”. For the same compound, the Activity [22] was “Active”, the Activity [23] was “Non-toxic” and the viability at 24 h, 80 µM [24] was > 80%. For the same compound, the Activity [25] was “Active”, the Activity [26] was “Active” and the Activity [27] was “Non-toxic”. For the same compound, the Activity [28] was “Active”, the Activity [29] was “Non-toxic” and the Activity [30] was 19.4%. The Activity [31] was “Non-toxic”, the inhibition [32] was “Active” and the Activity [33] was “inactive”. The Activity [34] was “Non-toxic”.

— ChEMBL document CHEMBL6121000, “Corosolic acid and its derivatives targeting MCCC1 against insulin resistance and their hypoglycemic effect on type 2 diabetic mice” (Eur J Med Chem, 2025)
